Values quoted from earlier work, collected in patent US12102063B2 (SYNEXIS LLC, priority 2017, dated 2024).

Experiments:
Salmonella typhimurium = conditions: eggs dipped twice in 6% H2O2 solution; cited from earlier work
Salmonella = conditions: […] solution with vacuum and surfactant; cited from earlier work
[1] = system: bacterial counts on eggshells; conditions: 3% solution combined with ultraviolet light; cited from earlier work

Structure (SMILES): OO [H2O2, hydrogen peroxide]
- reduction of the number of Salmonella in eggshell membranes (Salmonella typhimurium): 95%
- reduction of the numbers of positive eggs (Salmonella typhimurium): 55%
- treated eggs that remained contaminated (Salmonella): 30%
- reduction in bacterial counts (cfu/egg) [1]: ≤ 3 log
